Data reported in ChEMBL document CHEMBL5543122, “Discovery of HC-7366: An Orally Bioavailable and Efficacious GCN2 Kinase Activator” (J Med Chem, 2024).

Key:
[1] = molecular target: T1, Dual specificity mitogen-activated protein kinase kinase 5 (Homo sapiens, UniProt Q13163); assay: Inhibition of MAP2K5 in human MOLM16 cells; format: cell-based
T1 sequence (Q13163 whole entry): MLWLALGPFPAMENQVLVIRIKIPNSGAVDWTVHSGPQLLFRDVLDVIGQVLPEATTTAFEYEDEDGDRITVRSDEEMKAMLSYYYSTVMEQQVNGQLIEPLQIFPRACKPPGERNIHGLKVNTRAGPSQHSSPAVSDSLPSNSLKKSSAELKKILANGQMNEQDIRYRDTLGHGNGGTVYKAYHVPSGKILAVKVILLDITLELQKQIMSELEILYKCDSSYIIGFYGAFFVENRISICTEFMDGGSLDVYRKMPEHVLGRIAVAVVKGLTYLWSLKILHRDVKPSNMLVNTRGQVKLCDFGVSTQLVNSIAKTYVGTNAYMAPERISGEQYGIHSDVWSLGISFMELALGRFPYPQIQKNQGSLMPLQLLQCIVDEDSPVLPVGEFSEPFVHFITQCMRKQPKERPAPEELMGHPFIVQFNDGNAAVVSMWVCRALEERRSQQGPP

HT-1080 [2] = assay: Antitumor activity against human HT-1080 cells xenografted in BALB/c nude mouse assessed as mean tumor growth inhibition at 0.3 mg/kg administered twice a day for 14 days; format: functional; conditions: HT-1080, 336 h, time 14 day, read-out: TGI
HT-1080 [3] = assay: Antitumor activity against human HT-1080 cells xenografted in BALB/c nude mouse assessed as mean tumor growth inhibition at 3 mg/kg administered twice a day for 14 days; format: functional; conditions: HT-1080, 336 h, time 14 day, read-out: TGI

IC50 [1]: 2.9 µM
Compound: CNC(=O)c1ncn2cc(-c3c(F)ccc(NS(=O)(=O)c4cc(Cl)cnc4OC)c3F)ncc12
inhibition in vivo at 0.3 mg/kg (HT-1080 [2]): 18% | inhibition in vivo at 3 mg/kg (HT-1080 [3]): 84%
